Experimental data reported in ChEMBL document CHEMBL4819019, “Design, synthesis, antibacterial activity and toxicity of novel quaternary ammonium compounds based on pyridoxine and fatty acids” (Eur J Med Chem, 2021).

Columns and labels:
Pseudomonas aeruginosa [1] = test: Antibacterial activity against Pseudomonas aeruginosa ATCC 27853 measured after 24 hrs by broth microdilution method; assay type: functional
[2] = Lipophilicity, logP of the compound; assay type: physicochemical; details: octanol/water
[3] = system: Staphylococcus ureilyticus; test: Antibacterial activity against clinical isolate Staphylococcus ureilyticus 1972 measured after 24 hrs by broth microdilution method; assay type: functional
Klebsiella pneumoniae = test: Antibacterial activity against clinical isolate Klebsiella pneumoniae 1813 measured after 24 hrs by broth microdilution method; assay type: functional
Staphylococcus aureus [4] = test: Antibacterial activity against clinical isolate methicillin-resistant Staphylococcus aureus 1053 measured after 24 hrs by broth microdilution method; assay type: functional
[5] = system: Staphylococcus intermedius; test: Antibacterial activity against clinical isolate methicillin-resistant Staphylococcus intermedius 1143 measured after 24 hrs by broth microdilution method; assay type: functional
Escherichia coli [6] = test: Antibacterial activity against clinical isolate Escherichia coli 718 measured after 24 hrs by broth microdilution method; assay type: functional
Serratia marcescens = test: Antibacterial activity against clinical isolate Serratia marcescens 1966 measured after 24 hrs by broth microdilution method; assay type: functional
[7] = Cytotoxicity against human mesenchymal stem cells assessed as cell viability measured after 72 hrs by MTT assay; assay type: cell-based
Staphylococcus aureus [8] = test: Antibacterial activity against clinical isolate methicillin-resistant Staphylococcus aureus 1131 measured after 24 hrs by broth microdilution method; assay type: functional
Micrococcus luteus = test: Antibacterial activity against Micrococcus luteus clinical isolate measured after 24 hrs by broth microdilution method; assay type: functional
Staphylococcus aureus [9] = test: Antibacterial activity against clinical isolate methicillin-resistant Staphylococcus aureus 983 measured after 24 hrs by broth microdilution method; assay type: functional
Klebsiella sp. = test: Antibacterial activity against clinical isolate Klebsiella sp. 11 measured after 24 hrs by broth microdilution method; assay type: functional
Staphylococcus aureus [10] = test: Antibacterial activity against clinical isolate methicillin-resistant Staphylococcus aureus 713 measured after 24 hrs by broth microdilution method; assay type: functional
Bacillus subtilis = test: Antibacterial activity against Bacillus subtilis 168 measured after 24 hrs by broth microdilution method; assay type: functional
Staphylococcus aureus [11] = test: Antibacterial activity against clinical isolate Staphylococcus aureus 25 measured after 24 hrs by broth microdilution method; assay type: functional
Pseudomonas sp. = test: Antibacterial activity against clinical isolate Pseudomonas sp. 5 measured after 24 hrs by broth microdilution method; assay type: functional
Enterococcus faecalis [12] = test: Antibacterial activity against clinical isolate Enterococcus faecalis 23 measured after 24 hrs by broth microdilution method; assay type: functional
Acinetobacter sp. = test: Antibacterial activity against clinical isolate Acinetobacter sp. 3 measured after 24 hrs by broth microdilution method; assay type: functional
[13] = Genotoxicity in Salmonella typhimurium TA1535/pSK1002 assessed as DNA-damage activity by measuring beta-galactosidase activity at 750 ug/ml measured by SOS-chromotest relative to solvent control; assay type: toxicity; details: salmonella enterica subsp. enterica serovar typhimurium; dose 750 µg/ml
[14] = Genotoxicity in Salmonella typhimurium TA1535/pSK1002 assessed as DNA-damage activity by measuring beta-galactosidase activity at 150 ug/ml measured by SOS-chromotest relative to solvent control; assay type: toxicity; details: salmonella enterica subsp. enterica serovar typhimurium; dose 150 µg/ml
Proteus sp. = test: Antibacterial activity against clinical isolate Proteus sp. 17 measured after 24 hrs by broth microdilution method; assay type: functional; details: Proteus sp. (in: enterobacteria)
[15] = Genotoxicity in Salmonella typhimurium TA1535 assessed as number of revertant by Ames spot test relative to solvent control; assay type: toxicity; details: salmonella enterica subsp. enterica serovar typhimurium
Enterococcus faecalis [16] = test: Antibacterial activity against clinical isolate Enterococcus faecalis 3063 measured after 24 hrs by broth microdilution method; assay type: functional
[17] = Genotoxicity in Salmonella typhimurium TA1535/pSK1002 assessed as DNA-damage activity by measuring beta-galactosidase activity at 7.5 ug/ml measured by SOS-chromotest relative to solvent control; assay type: toxicity; details: salmonella enterica subsp. enterica serovar typhimurium; dose 7.5 µg/ml
Escherichia coli [18] = test: Antibacterial activity against Escherichia coli MG 1655 measured after 24 hrs by broth microdilution method; assay type: functional
[19] = Genotoxicity in Salmonella typhimurium TA1535/pSK1002 assessed as DNA-damage activity by measuring beta-galactosidase activity at 15 ug/ml measured by SOS-chromotest relative to solvent control; assay type: toxicity; details: salmonella enterica subsp. enterica serovar typhimurium; dose 15 µg/ml
[20] = Genotoxicity in Salmonella typhimurium TA98 assessed as number of revertant by Ames spot test relative to solvent control; assay type: toxicity; details: salmonella enterica subsp. enterica serovar typhimurium
[21] = Cytotoxicity against human skin fibroblasts assessed as cell viability measured after 72 hrs by MTT assay; assay type: cell-based, Fibroblast
[22] = Genotoxicity in Salmonella typhimurium TA1535/pSK1002 assessed as DNA-damage activity by measuring beta-galactosidase activity at 75 ug/ml measured by SOS-chromotest relative to solvent control; assay type: toxicity; details: salmonella enterica subsp. enterica serovar typhimurium; dose 75 µg/ml
[23] = Cytotoxicity against human HEK293 cells assessed as cell viability measured after 72 hrs by MTT assay; assay type: cell-based
[24] = Genotoxicity in Salmonella typhimurium TA1537 assessed as number of revertant by Ames spot test relative to solvent control; assay type: toxicity; details: salmonella enterica subsp. enterica serovar typhimurium
Staphylococcus aureus [25] = test: Antibacterial activity against clinical isolate methicillin-resistant Staphylococcus aureus 1065 measured after 24 hrs by broth microdilution method; assay type: functional
[26] = Genotoxicity in Salmonella typhimurium TA100 assessed as number of revertant by Ames spot test relative to solvent control; assay type: toxicity; details: salmonella enterica subsp. enterica serovar typhimurium
Staphylococcus aureus [27] = test: Antibacterial activity against Staphylococcus aureus ATCC 29213 measured after 24 hrs by broth microdilution method; assay type: functional
[28] = system: Staphylococcus intermedius; test: Antibacterial activity against clinical isolate methicillin-resistant Staphylococcus intermedius 1061 measured after 24 hrs by broth microdilution method; assay type: functional
Pseudomonas aeruginosa [29] = test: Antibacterial activity against clinical isolate Pseudomonas aeruginosa 1945 measured after 24 hrs by broth microdilution method; assay type: functional
Moraxella = test: Antibacterial activity against clinical isolate Moraxella 765 measured after 24 hrs by broth microdilution method; assay type: functional

| Structure (SMILES) | MIC (Pseudomonas aeruginosa [1]) [µg/mL] | logP [2] | MIC [3] [µg/mL] | MIC (Klebsiella pneumoniae) [µg/mL] | MIC (Staphylococcus aureus [4]) [µg/mL] | MIC [5] [µg/mL] | MIC (Escherichia coli [6]) [µg/mL] | MIC (Serratia marcescens) [µg/mL] | CC50 at 72 h [7] [µg/mL] | MIC (Staphylococcus aureus [8]) [µg/mL] | MIC (Micrococcus luteus) [µg/mL] | MIC (Staphylococcus aureus [9]) [µg/mL] | MIC (Klebsiella sp.) [µg/mL] | MIC (Staphylococcus aureus [10]) [µg/mL] | MIC (Bacillus subtilis) [µg/mL] | MIC (Staphylococcus aureus [11]) [µg/mL] | MIC (Pseudomonas sp.) [µg/mL] | MIC (Enterococcus faecalis [12]) [µg/mL] | MIC (Escherichia coli [18]) [µg/mL] | MIC (Staphylococcus aureus [27]) [µg/mL] | further results |
| --- | --- | --- | --- | --- | --- | --- | --- | --- | --- | --- | --- | --- | --- | --- | --- | --- | --- | --- | --- | --- | --- |
| CCCCCCCCCCCCCC(=O)OCC[N+](C)(C)Cc1nc(C)c2c(c1CO)COC(C)(C)O2.[Cl-] | > 64 | 1.46 | > 64 | 2 | 2 | 4 | 32 | > 64 | 1.02 | 4 | 1 | 32 | 64 | 2 | 0.5 | 2 | 64 | 2 | 32 | 1 | MIC (Acinetobacter sp.): 64 µg/mL; Ratio [13]: 0.3; Ratio [14]: 0.9; MIC (Proteus sp.): > 64 µg/mL; Ratio [15]: 0.4; MIC (Enterococcus faecalis [16]): 2 µg/mL; Ratio [17]: 1.8; Ratio [19]: 1.6; Ratio [20]: 2.5; CC50 at 72 h [21]: 2.24 µg/mL; Ratio [22]: 1.2; CC50 at 72 h [23]: 0.88 µg/mL; Ratio [24]: 0.05; MIC (Staphylococcus aureus [25]): 4 µg/mL; Ratio [26]: 2.1; MIC [28]: 4 µg/mL; MIC (Pseudomonas aeruginosa [29]): 64 µg/mL; MIC (Moraxella): 64 µg/mL |
| CCCCCCCCCCCCCC(=O)NCCC[N+](C)(C)Cc1cnc(C)c2c1COC(C)(C)O2.[Cl-] | 8 | 1.47 | – | – | – | – | – | – | 2.21 | – | 1 | – | – | – | 2 | – | – | – | 8 | 0.5 | Ratio [13]: 1; Ratio [14]: 0.5; Ratio [15]: 0.4; Ratio [17]: 1.5; Ratio [19]: 1.5; Ratio [20]: 2.6; CC50 at 72 h [21]: 3.14 µg/mL; Ratio [22]: 0.7; CC50 at 72 h [23]: 1.61 µg/mL; Ratio [24]: 0.03; Ratio [26]: 2.5 |
| CCCCCCCCCCCCCC(=O)NCC[N+](C)(C)Cc1cnc(C)c2c1COC(C)(C)O2.[Cl-] | 2 | 1.41 | 64 | 4 | 4 | 4 | 32 | 64 | 2.16 | 16 | 4 | 64 | 64 | 4 | 4 | 4 | 64 | 2 | 8 | 2 | MIC (Acinetobacter sp.): 64 µg/mL; Ratio [13]: 0.4; Ratio [14]: 0.5; MIC (Proteus sp.): > 64 µg/mL; Ratio [15]: 0.8; MIC (Enterococcus faecalis [16]): 2 µg/mL; Ratio [17]: 1.5; Ratio [19]: 1.5; Ratio [20]: 1.7; CC50 at 72 h [21]: 3.03 µg/mL; Ratio [22]: 0.7; CC50 at 72 h [23]: 1.18 µg/mL; Ratio [24]: 0.06; MIC (Staphylococcus aureus [25]): 8 µg/mL; Ratio [26]: 1.3; MIC [28]: 4 µg/mL; MIC (Pseudomonas aeruginosa [29]): 64 µg/mL; MIC (Moraxella): 64 µg/mL |
| CCCCCCCCCCCC(=O)OCCC[N+](C)(C)Cc1cnc(C)c2c1COC(CCC)O2.[Cl-] (centres undefined) | 32 | 2.14 | > 64 | > 64 | 8 | 16 | 8 | > 64 | 2.42 | 16 | 1 | 32 | 32 | 16 | 2 | 8 | 32 | 4 | 4 | 2 | MIC (Acinetobacter sp.): 64 µg/mL; Ratio [13]: 0.5; Ratio [14]: 1.1; MIC (Proteus sp.): > 64 µg/mL; Ratio [15]: 0.5; MIC (Enterococcus faecalis [16]): 4 µg/mL; Ratio [17]: 1.4; Ratio [19]: 1.4; Ratio [20]: 1.8; CC50 at 72 h [21]: 4.32 µg/mL; Ratio [22]: 1.5; CC50 at 72 h [23]: 2.15 µg/mL; Ratio [24]: 0.03; MIC (Staphylococcus aureus [25]): 16 µg/mL; Ratio [26]: 2.4; MIC [28]: 16 µg/mL; MIC (Pseudomonas aeruginosa [29]): > 64 µg/mL; MIC (Moraxella): 64 µg/mL |
| CCCCCCCCCCCCCCCCCC(=O)NCCC[N+](C)(C)Cc1cnc(C)c2c1COC(C)(C)O2.[Cl-] | 8 | 3.25 | > 64 | > 64 | 8 | 16 | > 64 | > 64 | – | 16 | 4 | 64 | 64 | 16 | 8 | 8 | 64 | 4 | > 64 | 4 | MIC (Acinetobacter sp.): 64 µg/mL; MIC (Proteus sp.): > 64 µg/mL; MIC (Enterococcus faecalis [16]): 4 µg/mL; MIC (Staphylococcus aureus [25]): 8 µg/mL; MIC [28]: 8 µg/mL; MIC (Pseudomonas aeruginosa [29]): > 64 µg/mL; MIC (Moraxella): > 64 µg/mL |
| CCCCCCCCCCCCCC(=O)OCC[N+](C)(C)Cc1cnc(C)c2c1COC(CCC)O2.[Cl-] (centres undefined) | 1 | 2.97 | > 64 | 64 | 2 | 4 | 32 | > 64 | 1.28 | 4 | 0.5 | 64 | 32 | 2 | 4 | 2 | 64 | 4 | 16 | 0.5 | MIC (Acinetobacter sp.): 64 µg/mL; Ratio [13]: 0.3; Ratio [14]: 1.3; MIC (Proteus sp.): > 64 µg/mL; Ratio [15]: 0.4; MIC (Enterococcus faecalis [16]): 4 µg/mL; Ratio [17]: 1.4; Ratio [19]: 1.5; Ratio [20]: 4.7; CC50 at 72 h [21]: 2.18 µg/mL; Ratio [22]: 1.5; CC50 at 72 h [23]: 1 µg/mL; Ratio [24]: 0.04; MIC (Staphylococcus aureus [25]): 2 µg/mL; Ratio [26]: 1.2; MIC [28]: 2 µg/mL; MIC (Pseudomonas aeruginosa [29]): > 64 µg/mL; MIC (Moraxella): 64 µg/mL |
| CCCCCCCCCCCCCC(=O)NCC[N+](C)(C)Cc1cnc(C)c2c1COC(C)(CCC)O2.[Cl-] (centres undefined) | 8 | 2.24 | > 64 | 8 | 1 | 2 | 8 | 64 | 1.38 | 2 | 1 | 16 | 32 | 2 | 2 | 2 | 32 | 1 | 32 | 1 | MIC (Acinetobacter sp.): 32 µg/mL; Ratio [13]: 0.3; Ratio [14]: 0.5; MIC (Proteus sp.): > 64 µg/mL; Ratio [15]: 0.5; MIC (Enterococcus faecalis [16]): 1 µg/mL; Ratio [17]: 1.5; Ratio [19]: 1.6; Ratio [20]: 4.4; CC50 at 72 h [21]: 2.15 µg/mL; Ratio [22]: 0.9; CC50 at 72 h [23]: 1.16 µg/mL; Ratio [24]: 0.03; MIC (Staphylococcus aureus [25]): 2 µg/mL; Ratio [26]: 0.7; MIC [28]: 2 µg/mL; MIC (Pseudomonas aeruginosa [29]): 64 µg/mL; MIC (Moraxella): 16 µg/mL |
